{"source": "ChEMBL document CHEMBL1201862", "about": "“PubChem BioAssay data set” (2004)", "test_in_all_cases": "growth of human tumour cells (NCI), 48 h", "key": {"A549": {"system": "A549"}, "ACHN": {"system": "ACHN"}, "DLD-1": {"system": "DLD-1"}, "DMS-273": {"system": "DMS-273"}, "HCT-15": {"system": "HCT-15"}, "LOX IMVI": {"system": "LOX IMVI"}, "LXFL 529": {"system": "LXFL 529"}, "Malme-3M": {"system": "Malme-3M"}, "NCI-H226": {"system": "NCI-H226"}, "NCI-H23": {"system": "NCI-H23"}, "SF-268": {"system": "SF-268"}, "SF-539": {"system": "SF-539"}, "SN12C": {"system": "SN12C"}, "SNB-75": {"system": "SNB-75"}, "SR": {"system": "SR"}, "786-0": {"system": "786-0"}, "A498": {"system": "A498"}, "BT-549": {"system": "BT-549"}, "CAKI-1": {"system": "CAKI-1"}, "CCRF-CEM": {"system": "CCRF-CEM"}, "COLO 205": {"system": "COLO 205"}, "DU-145": {"system": "DU-145"}, "EKVX": {"system": "EKVX"}, "HCC 2998": {"system": "HCC 2998"}, "HCT-116": {"system": "HCT-116"}, "HL-60": {"system": "HL-60"}, "HOP-62": {"system": "HOP-62"}, "HOP-92": {"system": "HOP-92"}, "HT-29": {"system": "HT-29"}, "Hs-578T": {"system": "Hs-578T"}, "IGROV-1": {"system": "IGROV-1"}, "K562": {"system": "K562"}, "KM12": {"system": "KM12"}, "M14": {"system": "M14"}, "MCF7": {"system": "MCF7"}, "MDA-MB-231": {"system": "MDA-MB-231"}, "MDA-MB-435": {"system": "MDA-MB-435"}, "MDA-N": {"system": "MDA-N"}, "MOLT-4": {"system": "MOLT-4"}, "NCI-H460": {"system": "NCI-H460"}, "NCI-H522": {"system": "NCI-H522"}, "NCI/ADR-RES": {"system": "NCI/ADR-RES"}, "OVCAR-3": {"system": "OVCAR-3"}, "OVCAR-4": {"system": "OVCAR-4"}, "OVCAR-5": {"system": "OVCAR-5"}, "OVCAR-8": {"system": "OVCAR-8"}, "PC-3": {"system": "PC-3"}, "RPMI-8226": {"system": "RPMI-8226"}, "RXF 393": {"system": "RXF 393"}, "SF-295": {"system": "SF-295"}, "SK-MEL-28": {"system": "SK-MEL-28"}, "SK-MEL-2": {"system": "SK-MEL-2"}, "SK-MEL-5": {"system": "SK-MEL-5"}, "SK-OV-3": {"system": "SK-OV-3"}, "SNB-19": {"system": "SNB-19"}, "SW-620": {"system": "SW-620"}, "T47D": {"system": "T47D"}, "TK-10": {"system": "TK-10"}, "U-251": {"system": "U-251"}, "UACC-257": {"system": "UACC-257"}, "UACC-62": {"system": "UACC-62"}, "UO-31": {"system": "UO-31"}, "M19-MEL": {"system": "M19-MEL"}}, "note": "Where “and” joins values, the source holds several entries; their conditions need not be identical. Equal values may be shown once.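 Step 1: Grow cells in 96-well plates. Step 2: Expose to compound for 48 hours at 5 concentrations. Step 3: Interpolate endpoints linearly; if unreached, use highest concentration. The concentration for 50% growth inhibition is given as GI50.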 Calls of active or inactive are those of the source. No stated cut-off is given here; in the data, active = GI50 up to about 1.1 µM and inactive = higher."}
{"molecule": "c1ccncc1", "values": [{"measurement": "GI50", "setting": "A549", "result": "> 100 µM (inactive)"}, {"measurement": "GI50", "setting": "ACHN", "result": "> 100 µM (inactive)"}, {"measurement": "GI50", "setting": "DLD-1", "result": "> 100 µM (inactive)"}, {"measurement": "GI50", "setting": "DMS-273", "result": "> 100 µM (inactive)"}, {"measurement": "GI50", "setting": "HCT-15", "result": "> 100", "unit": "µM"}, {"measurement": "GI50", "setting": "LOX IMVI", "result": "> 100 µM (inactive)"}, {"measurement": "GI50", "setting": "LXFL 529", "result": "> 100 µM (inactive)"}, {"measurement": "GI50", "setting": "Malme-3M", "result": "> 100 µM (inactive)"}, {"measurement": "GI50", "setting": "NCI-H226", "result": "> 100 µM (inactive)"}, {"measurement": "GI50", "setting": "NCI-H23", "result": "> 100 µM (inactive)"}, {"measurement": "GI50", "setting": "SF-268", "result": "> 100 µM (inactive)"}, {"measurement": "GI50", "setting": "SF-539", "result": "> 100 µM (inactive)"}, {"measurement": "GI50", "setting": "SN12C", "result": "> 100 µM (inactive)"}, {"measurement": "GI50", "setting": "SNB-75", "result": "85.5 µM (inactive)"}, {"measurement": "GI50", "setting": "SR", "result": "> 100 µM (inactive)"}]}
{"molecule": "O=C(Nc1ccccc1C(=O)NCCCO)/C(=C/c1ccccc1O)NC(=O)c1ccccc1", "values": [{"measurement": "GI50", "setting": "786-0", "result": "34 µM (inactive)"}, {"measurement": "GI50", "setting": "A498", "result": "> 91.2 µM (inactive)"}, {"measurement": "GI50", "setting": "A549", "result": "> 100 µM (inactive)"}, {"measurement": "GI50", "setting": "ACHN", "result": "30.8 µM (inactive)"}, {"measurement": "GI50", "setting": "BT-549", "result": "19.8 µM (inactive)"}, {"measurement": "GI50", "setting": "CAKI-1", "result": "> 100 µM (inactive)"}, {"measurement": "GI50", "setting": "CCRF-CEM", "result": "> 100 µM (inactive)"}, {"measurement": "GI50", "setting": "COLO 205", "result": "> 100 µM (inactive)"}, {"measurement": "GI50", "setting": "DU-145", "result": "> 81.8 µM (inactive)"}, {"measurement": "GI50", "setting": "EKVX", "result": "65.6 µM (inactive)"}, {"measurement": "GI50", "setting": "HCC 2998", "result": "> 100 µM (inactive)"}, {"measurement": "GI50", "setting": "HCT-116", "result": "37.3 µM (inactive)"}, {"measurement": "GI50", "setting": "HCT-15", "result": "> 78.2", "unit": "µM"}, {"measurement": "GI50", "setting": "HL-60", "result": "> 100 µM (inactive)"}, {"measurement": "GI50", "setting": "HOP-62", "result": "20.5 µM (inactive)"}, {"measurement": "GI50", "setting": "HOP-92", "result": "53.3 µM (inactive)"}, {"measurement": "GI50", "setting": "HT-29", "result": "> 100 µM (inactive)"}, {"measurement": "GI50", "setting": "Hs-578T", "result": "26.2 µM (inactive)"}, {"measurement": "GI50", "setting": "IGROV-1", "result": "36.6 µM (inactive)"}, {"measurement": "GI50", "setting": "K562", "result": "> 100 µM (inactive)"}, {"measurement": "GI50", "setting": "KM12", "result": "18.4 µM (inactive)"}, {"measurement": "GI50", "setting": "LOX IMVI", "result": "21.5 µM (inactive)"}, {"measurement": "GI50", "setting": "M14", "result": "55.6 µM (inactive)"}, {"measurement": "GI50", "setting": "MCF7", "result": "5.36 µM (inactive)"}, {"measurement": "GI50", "setting": "MDA-MB-231", "result": "26.7 µM (inactive)"}, {"measurement": "GI50", "setting": "MDA-MB-435", "result": "> 50.5 µM (inactive)"}, {"measurement": "GI50", "setting": "MDA-N", "result": "> 43.5 µM (inactive)"}, {"measurement": "GI50", "setting": "MOLT-4", "result": "> 100 µM (inactive)"}, {"measurement": "GI50", "setting": "Malme-3M", "result": "95.3 µM (inactive)"}, {"measurement": "GI50", "setting": "NCI-H226", "result": "39.3 µM (inactive)"}, {"measurement": "GI50", "setting": "NCI-H23", "result": "36.1 µM (inactive)"}, {"measurement": "GI50", "setting": "NCI-H460", "result": "> 72.1 µM (inactive)"}, {"measurement": "GI50", "setting": "NCI-H522", "result": "25.2 µM (inactive)"}, {"measurement": "GI50", "setting": "NCI/ADR-RES", "result": "17 µM (inactive)"}, {"measurement": "GI50", "setting": "OVCAR-3", "result": "48.8 µM (inactive)"}, {"measurement": "GI50", "setting": "OVCAR-4", "result": "56.8 µM (inactive)"}, {"measurement": "GI50", "setting": "OVCAR-5", "result": "> 100 µM (inactive)"}, {"measurement": "GI50", "setting": "OVCAR-8", "result": "> 42.7 µM (inactive)"}, {"measurement": "GI50", "setting": "PC-3", "result": "33.1 µM (inactive)"}, {"measurement": "GI50", "setting": "RPMI-8226", "result": "> 100 µM (inactive)"}, {"measurement": "GI50", "setting": "RXF 393", "result": "28.1 µM (inactive)"}, {"measurement": "GI50", "setting": "SF-268", "result": "35.6 µM (inactive)"}, {"measurement": "GI50", "setting": "SF-295", "result": "34.4 µM (inactive)"}, {"measurement": "GI50", "setting": "SF-539", "result": "30.8 µM (inactive)"}, {"measurement": "GI50", "setting": "SK-MEL-28", "result": "> 100 µM (inactive)"}, {"measurement": "GI50", "setting": "SK-MEL-2", "result": "44.3 µM (inactive)"}, {"measurement": "GI50", "setting": "SK-MEL-5", "result": "> 100 µM (inactive)"}, {"measurement": "GI50", "setting": "SK-OV-3", "result": "51.5 µM (inactive)"}, {"measurement": "GI50", "setting": "SN12C", "result": "> 80.9 µM (inactive)"}, {"measurement": "GI50", "setting": "SNB-19", "result": "16.9 µM (inactive)"}, {"measurement": "GI50", "setting": "SNB-75", "result": "20.2 µM (inactive)"}, {"measurement": "GI50", "setting": "SR", "result": "> 100 µM (inactive)"}, {"measurement": "GI50", "setting": "SW-620", "result": "> 84.3 µM (inactive)"}, {"measurement": "GI50", "setting": "T47D", "result": "16.3 µM (inactive)"}, {"measurement": "GI50", "setting": "TK-10", "result": "97.9 µM (inactive)"}, {"measurement": "GI50", "setting": "U-251", "result": "30 µM (inactive)"}, {"measurement": "GI50", "setting": "UACC-257", "result": "> 100 µM (inactive)"}, {"measurement": "GI50", "setting": "UACC-62", "result": "19.5 µM (inactive)"}, {"measurement": "GI50", "setting": "UO-31", "result": "20.7 µM (inactive)"}]}
{"molecule": "COc1ccc(C(c2ccccc2)C(C)C(=O)c2c(C)cc(C)cc2C)cc1", "note": "(stereo not given)", "values": [{"measurement": "GI50", "setting": "HT-29", "result": "47.4 µM (inactive) and 56 µM (inactive)"}, {"measurement": "GI50", "setting": "K562", "result": "94.2 µM (inactive) and 53.7 µM (inactive)"}, {"measurement": "GI50", "setting": "M19-MEL", "result": "42.5 µM (inactive) and 59 µM (inactive)"}, {"measurement": "GI50", "setting": "Malme-3M", "result": "57.7 µM (inactive)"}, {"measurement": "GI50", "setting": "NCI-H522", "result": "37.8 µM (inactive) and 53.5 µM (inactive)"}, {"measurement": "GI50", "setting": "RPMI-8226", "result": "69.8 µM (inactive) and 79.8 µM (inactive)"}]}
